Experimental data from patent US20220281863A1, “COMPOUNDS, COMPOSITIONS AND METHODS OF TREATING DISORDERS” (Reverie Labs, Inc., priority 2019, published 2022).

Target: T1, CDK9/CycTI (Homo sapiens, UniProt P50750)
T1 construct: purchased Carna biosciences 04-110
Assay: In vitro kinase assay (ADP-Glo Kinase Assay Kit), CDK9/CycTI
Type: biochemical
Conditions: 30 ng CDK9/CycTI, 30 μM CDKtide, 10 μM ATP, 2 hours at room temperature; 8 to 10-point dose response (Tier2); read-out: IC50 Score
Description: In vitro kinase assay was performed in white, 384-low volume plates in 5 μl reaction volume consisting of 30 ng CDK9/CycTI (Carna biosciences #04-110), 30 μM CDKtide (Signalchem #C06-58) and 10 μM ATP made in reaction buffer (40 mM Tris, pH 7.5; 20 mM MgCl2; 0.1 mg/ml BSA; 50 μM DTT) at 1 μM & 10 μM compound concentration for Tier1 assay and 8 to 10-point dose response curve for Tier2 assay. After 2 hours of incubation at room temperature, the amounts of […] in the kinase reaction were quantified using ADP-Glo™ Kinase Assay Kit (Promega #V9102). Briefly, 5 μl of ADP-Glo™ reagent was added to stop the kinase reaction and plate was incubated for 40 minutes at room temperature. Subsequently, 10 μl of Kinase Detection Reagent was added and luminescence was recorded after 30 minutes of incubation at room temperature.
The inhibition of kinase activity was determined relative to positive control (2% DMSO) and IC50 was calculated using GraphPad prism software (four parameter-variable slope equation).

T1 sequence (P50750 whole entry): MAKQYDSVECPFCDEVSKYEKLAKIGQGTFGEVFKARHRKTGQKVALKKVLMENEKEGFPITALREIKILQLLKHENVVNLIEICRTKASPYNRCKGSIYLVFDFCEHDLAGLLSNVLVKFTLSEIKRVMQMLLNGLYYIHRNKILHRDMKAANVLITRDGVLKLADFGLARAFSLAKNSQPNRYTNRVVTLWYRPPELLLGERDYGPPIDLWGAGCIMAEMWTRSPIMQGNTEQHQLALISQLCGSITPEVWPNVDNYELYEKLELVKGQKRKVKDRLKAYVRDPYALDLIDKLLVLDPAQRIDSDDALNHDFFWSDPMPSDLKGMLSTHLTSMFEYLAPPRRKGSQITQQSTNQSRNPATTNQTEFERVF
T1 sequence (O60563 whole entry partner): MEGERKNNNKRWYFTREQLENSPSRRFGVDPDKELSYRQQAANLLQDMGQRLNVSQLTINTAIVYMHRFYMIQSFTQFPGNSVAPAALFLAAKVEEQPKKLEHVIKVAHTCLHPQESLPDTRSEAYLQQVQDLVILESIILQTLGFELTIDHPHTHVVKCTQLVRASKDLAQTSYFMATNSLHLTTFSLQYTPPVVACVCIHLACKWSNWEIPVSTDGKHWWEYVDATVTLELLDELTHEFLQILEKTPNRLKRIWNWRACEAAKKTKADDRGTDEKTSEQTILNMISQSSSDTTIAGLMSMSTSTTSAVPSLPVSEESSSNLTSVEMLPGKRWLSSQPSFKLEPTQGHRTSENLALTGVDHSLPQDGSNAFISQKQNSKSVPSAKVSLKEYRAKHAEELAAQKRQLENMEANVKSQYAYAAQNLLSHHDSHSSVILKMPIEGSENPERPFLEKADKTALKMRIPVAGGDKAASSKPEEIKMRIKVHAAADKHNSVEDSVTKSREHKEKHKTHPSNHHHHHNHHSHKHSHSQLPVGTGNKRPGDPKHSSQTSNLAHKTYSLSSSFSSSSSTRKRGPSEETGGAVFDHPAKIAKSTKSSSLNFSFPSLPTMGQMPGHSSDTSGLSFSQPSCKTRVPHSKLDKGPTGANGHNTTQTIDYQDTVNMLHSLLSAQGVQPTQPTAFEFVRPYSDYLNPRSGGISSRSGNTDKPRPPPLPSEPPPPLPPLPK

Row | IC50 [nM] | Compound
1 | 500 to 1000 | O=C(Nc1nc2c(s1)-c1ccc(F)cc1CC2)[C@H]1CCC[C@@H](NS(=O)(=O)C2CC2)C1 [Compound 15-b, (1S,3R)-3-(cyclopropanesulfonamido)-N-(7-fluoro-4,5-dihydronaphtho[2,1-d]thiazol-2-yl)cyclohexane-1-carboxamide]
2 | 1 to 100 | N[C@@H]1CC[C@H](C(=O)Nc2nc3ccc4cc(F)ccc4c3s2)C1 [Compound 26]
3 | 100 to 500 | CC(C)(C)OC(=O)N[C@H]1CCC[C@@H](C(=O)Nc2nc3ccc4cc(F)ccc4c3s2)C1 [Compound 30, Tert-butyl ((1S,3R)-3-((7-fluoronaphtho[2,1-d]thiazol-2-yl)carbamoyl)cyclohexyl) carbamate]
4 | 100 to 500 | C=CC(=O)N[C@H]1CCC[C@@H](C(=O)Nc2nc3ccc4cc(F)ccc4c3s2)C1 [Compound 33, (1R,3S)-3-acrylamido-N-(7-fluoronaphtho[2,1-d]thiazol-2-yl)cyclohexane-1-carboxamide]
5 | 1000 to 20000 | CC(C)(C)OC(=O)N1CC[C@@H]1C(=O)Nc1nc2ccc3cc(F)ccc3c2s1 [Compound 35, Tert-butyl (R)-2-((7-fluoronaphtho[2,1-d]thiazol-2-yl)carbamoyl)azetidine-1-carboxylate]
6 | 100 to 500 | CC(=O)N1CCC[C@@H](C(=O)Nc2nc3ccc4cc(F)ccc4c3s2)C1 [Compound 38, 1-acetyl-N-(7-fluoronaphtho[2,1-d]thiazol-2-yl)piperidine-3-carboxamide]
7 | 1 to 100 | C=CC(=O)N[C@@H]1CCC[C@H](C(=O)Nc2nc3ccc4cc(F)ccc4c3s2)C1 [Compound 41, (1S,3R)-3-acrylamido-N-(7-fluoronaphtho[2,1-d]thiazol-2-yl)cyclohexane-1-carboxamide]
8 | 100 to 500 | O=C(Nc1nc2ccc3cc(F)ccc3c2s1)[C@H]1CCOC1 [Compound 42]
9 | 1 to 100 | CC(=O)N1CCC[C@H](C(=O)Nc2nc3ccc4cc(F)ccc4c3s2)C1 [Compound 45, (S)-1-acetyl-N-(7-fluoronaphtho[2,1-d]thiazol-2-yl)piperidine-3-carboxamide]
10 | 500 to 1000 | CC(C)(C)OC(=O)N[C@H]1CCC[C@H](C(=O)Nc2nc3ccc4cc(F)ccc4c3s2)C1 [Compound 46]
11 | 1000 to 20000 | O=C(Nc1nc2ccc3cc(F)ccc3c2s1)c1ccno1 [Compound 49, N-(7-fluoronaphtho[2,1-d]thiazol-2-yl)isoxazole-5-carboxamide]
12 | 1000 to 20000 | O=C(Nc1nc2ccc3cc(F)ccc3c2s1)c1cn[nH]c1 [Compound 50, N-(7-fluoronaphtho[2,1-d]thiazol-2-yl)-1H-pyrazole-4-carboxamide]
13 | 1 to 100 | O=C(Nc1nc2ccc3cc(F)ccc3c2s1)[C@H]1CC[C@@H](N2CCOCC2)C1 [Compound 57, (1S,3R)—N-(7-fluoronaphtho[2,1-d]thiazol-2-yl)-3-morpholinocyclopentane-1-carboxamide]
14 | 500 to 1000 | CC(C)(C)OC(=O)N1CC[C@H](C(=O)Nc2nc3ccc4cc(F)ccc4c3s2)C1 [Compound 59, Tert-butyl (S)-3-((7-fluoronaphtho[2,1-d]thiazol-2-yl)carbamoyl)pyrrolidine-1-carboxylate]

The remaining lines, values behind:

Row | Compound | IC50 [nM]
15 | CC(=O)N[C@H]1CCC[C@H](C(=O)Nc2nc3ccc4cc(F)ccc4c3s2)C1 [Compound 16, (1S,3S)-3-acetamido-N-(7-fluoronaphtho[2,1-d]thiazol-2-yl)cyclohexane-1-carboxamide] | 1 to 100
16 | CC(=O)N1CCC[C@@H]1C(=O)Nc1nc2ccc3cc(Cl)ccc3c2s1 [Compound 17, (R)-1-acetyl-N-(7-chloronaphtho[2,1-d]thiazol-2-yl)pyrrolidine-2-carboxamide] | 1 to 100
17 | CC(=O)N1CCOC[C@@H]1C(=O)Nc1nc2ccc3cc(F)ccc3c2s1 [Compound 19, (R)-4-acetyl-N-(7-fluoronaphtho[2,1-d]thiazol-2-yl)morpholine-3-carboxamide] | 1 to 100
18 | O=C(Nc1nc2ccc3cc(F)ccc3c2s1)[C@H]1CCCCN1 [Compound 20] | 1000 to 20000
19 | CC(=O)N1CCCC[C@@H]1C(=O)Nc1nc2ccc3cc(F)ccc3c2s1 [Compound 21] | 1 to 100
20 | CC(=O)N(C)[C@@H]1CCC[C@H](C(=O)Nc2nc3ccc4cc(F)ccc4c3s2)C1 [Compound 22] | 100 to 500
21 | CC(C)(C)OC(=O)N1CCCC[C@@H]1C(=O)Nc1nc2ccc3cc(F)ccc3c2s1 [Compound 23] | 1 to 100
22 | CN(C(=O)OC(C)(C)C)[C@@H]1CCC[C@H](C(=O)Nc2nc3ccc4cc(F)ccc4c3s2)C1 [Compound 24] | 1000 to 20000
23 | CC(=O)N[C@@H]1CC[C@H](C(=O)Nc2nc3ccc4cc(F)ccc4c3s2)C1 [Compound 25] | 500 to 1000
24 | CC(=O)N1CCCC[C@H]1C(=O)Nc1nc2ccc3cc(F)ccc3c2s1 [Compound 27, (S)-1-acetyl-N-(7-fluoronaphtho[2,1-d]thiazol-2-yl)piperidine-2-carboxamide] | 1 to 100
25 | CC(=O)N1CC(C(=O)Nc2nc3ccc4cc(F)ccc4c3s2)C1 [Compound 28, 1-acetyl-N-(7-fluoronaphtho[2,1-d]thiazol-2-yl)azetidine-3-carboxamide] | 100 to 500
26 | CN1CC(C(=O)Nc2nc3ccc4cc(F)ccc4c3s2)C1 [Compound 29] | 1000 to 20000
27 | O=C(Nc1nc2ccc3cc(F)ccc3c2s1)[C@H]1CCNC1 [Compound 31, (S)—N-(7-fluoronaphtho[2,1-d]thiazol-2-yl)pyrrolidine-3-carboxamide] | 100 to 500
28 | CC(C)(C)OC(=O)N[C@@H]1CC[C@H](C(=O)Nc2nc3ccc4cc(F)ccc4c3s2)C1 [Compound 34] | 100 to 500
29 | CN(C)[C@@H]1CC[C@H](C(=O)Nc2nc3ccc4cc(F)ccc4c3s2)C1 [Compound 39] | 1 to 100
30 | CC(C)(C)OC(=O)N1CCC(C(=O)Nc2nc3ccc4cc(F)ccc4c3s2)CC1 [Compound 40] | 1000 to 20000
31 | O=C(Nc1nc2ccc3cc(F)ccc3c2s1)C1CCNCC1 [Compound 43] | 100 to 500
32 | C=CC(=O)N1CCC[C@@H]1C(=O)Nc1nc2ccc3cc(F)ccc3c2s1 [Compound 44, (R)-1-acryloyl-N-(7-fluoronaphtho[2,1-d]thiazol-2-yl)pyrrolidine-2-carboxamide] | 1 to 100
33 | O=C(Nc1nc2ccc3cc(F)ccc3c2s1)[C@@H]1CCCN1 [Compound 47, (S)—N-(7-fluoronaphtho[2,1-d]thiazol-2-yl)pyrrolidine-2-carboxamide] | 500 to 1000
34 | CC(=O)N1CC[C@H](C(=O)Nc2nc3ccc4cc(F)ccc4c3s2)C1 [Compound 52, (S)-1-acetyl-N-(7-fluoronaphtho[2,1-d]thiazol-2-yl)pyrrolidine-3-carboxamide] | 1 to 100
35 | O=C(Nc1nc2ccc3cc(F)ccc3c2s1)c1c[nH]cn1 [Compound 53, N-(7-fluoronaphtho[2,1-d]thiazol-2-yl)-1H-imidazole-4-carboxamide] | 1000 to 20000
36 | O=C(Nc1nc2ccc3cc(F)ccc3c2s1)C1CNC1 [Compound 58, N-(7-fluoronaphtho[2,1-d]thiazol-2-yl)azetidine-3-carboxamide] | 100 to 500
37 | O=C(Nc1nc2ccc3cc(F)ccc3c2s1)[C@@H]1CCOC1 [Compound 60, (R)—N-(7-fluoronaphtho[2,1-d]thiazol-2-yl)tetrahydrofuran-3-carboxamide] | 1 to 100
38 | CC(C)(C)OC(=O)N1CCC[C@H](C(=O)Nc2nc3ccc4cc(F)ccc4c3s2)C1 [Compound 62, tert-butyl (S)-3-((7-fluoronaphtho[2,1-d]thiazol-2-yl)carbamoyl)piperidine-1-carboxylate] | 1000 to 20000
